# In patent publication US20090012085A1, “DOSAGE FORMS AND METHODS OF TREATMENT USING A TYROSINE KINASE INHIBITOR” (priority 2005, published 2009):
# Like-named read-outs stand apart in the source and are kept apart here.
# Test: Phase I dose-escalating study, plasma pharmacokinetics in patients with solid tumor
# Assay type: in vivo, human
# Conditions: for Tmax: read-out: tmax, mean (% CV); for concentration at 4 h: nominal time 4 h; for concentration at 12 h: nominal time 12 h; for accumulation of the drug with continuous dosing: plasma exposures on Day 28 of dosing, compared to 4/1 schedule
# Description: Cmax values, or maximum total plasma concentrations, of a compound of formula 1 can be measured according to techniques well known to those skilled in the art. For example, after a compound of formula 1 has been administered to a mammal, blood samples can be taken at fixed time points over a period of time (e.g. 24 hours) and the serum or plasma concentration of compound of formula 1 can be measured using standard analytical techniques known in the art. In vivo determinations Cmax can then be made by plotting the serum or plasma concentration of compound of formula 1 along the ordinate (y-axis) against time along the abscissa (x-axis).
# The maleate salt of compound 1 was administered to human patients with solid tumor malignancies not amenable to conventional therapies in a Phase I dose-escalating multicenter study. The types of tumor malignancies included colorectal carcinoma, renal cell carcinoma, esophageal carcinoma, thymus carcinoma, mastocytosis, lung cancer and multiple endocrine neoplasia type II. Patients were treated in cohorts of 6 with escalating QD (once per day) doses of the maleate salt of compound 1 under fasting conditions. Each study cycle of 5 weeks consisted of 4 weeks of treatment followed by 1 week of rest (4/1 schedule), or continuous dosing without any rest period.
# Full pharmacokinetic profiles were collected on Cycle 1 Day 1 (C1D1), Cycle 1 Day 28 (C1D28), and Cycle 2 Day 28 (C2D28). Preliminary pharmacokinetic parameters for the first 44 patients, i.e. the first 7 dosing groups, were estimated using nominal collection times and quality-controlled, non-quality assured bioanalytical data. The dosage amounts in Table 1A and Table 1B are free base equivalent amounts.
structure (smiles),measurement,setting,value
"Cc1[nH]c(/C=C2\C(=O)Nc3ccc(F)cc32)c(C)c1C(=O)NC[C@H](O)CN1CCOCC1 [compound 1, 5-[(Z)-(5-fluoro-2-oxo-1,2-dihydro-3H-indol-3-ylidene)methyl]-N-[(2S)-2-hydroxy-3-morpholin-4-ylpropyl]-2,4-dimethyl-1H-pyrrole-3-carboxamide]",half-life,"human, plasma, 200 mg, 200 mg QD (4/1), C1D1 (n = 6), plasma, read-out: t½, mean (% CV) (converted)",18.8 h
same,AUC(0-t),"human, plasma, 200 mg, 200 mg QD (4/1), C1D28 (n = 5), plasma, read-out: AUC(0-24), mean (% CV)",8210 ng·h/mL
same,concentration at 24 h,"human, plasma, 200 mg, 200 mg QD (4/1), C1D28 (n = 5), plasma, read-out: C(trough, 24 h), mean (% CV)",259 ng/mL
same,Cmax,"human, plasma, 200 mg, 200 mg QD (4/1), C1D28 (n = 5), plasma, read-out: Cmax, mean (% CV)",561 ng/mL
same,Tmax,"human, plasma, 200 mg, 200 mg QD (4/1), C1D28 (n = 5), plasma",6.6 h
same,half-life,"human, plasma, 200 mg, 200 mg QD (4/1), C1D28 (n = 5), plasma, read-out: t½, mean (% CV) (converted)",26.9 h
same,AUC(0-t),"human, plasma, 200 mg, 200 mg QD (4/1), C2D28 (n = 5), plasma, read-out: AUC(0-24), mean (% CV)",6270 ng·h/mL
same,concentration at 24 h,"human, plasma, 200 mg, 200 mg QD (4/1), C2D28 (n = 5), plasma, read-out: C(trough, 24 h), mean (% CV)",211 ng/mL
same,Cmax,"human, plasma, 200 mg, 200 mg QD (4/1), C2D28 (n = 5), plasma, read-out: Cmax, mean (% CV)",375 ng/mL
same,Tmax,"human, plasma, 200 mg, 200 mg QD (4/1), C2D28 (n = 5), plasma",5.6 h
same,half-life,"human, plasma, 200 mg, 200 mg QD (4/1), C2D28 (n = 5), plasma, read-out: t½, mean (% CV) (converted)",15.3 h
same,concentration at 3 h,"human, plasma, 250 mg QD, 250 mg QD 4/1 (n = 6), nominal time 3 h, read-out: Mean plasma concentration following the last dose on cycle 1 day 28",250 ng/mL
same,concentration at 4 h,"human, plasma, 250 mg QD, 250 mg QD 4/1 (n = 6), read-out: Mean plasma concentration following the last dose on cycle 1 day 28",200 ng/mL
same,concentration at 6 h,"human, plasma, 250 mg QD, 250 mg QD 4/1 (n = 6), nominal time 6 h, read-out: Mean plasma concentration following the last dose on cycle 1 day 28",157 ng/mL
same,concentration at 8 h,"human, plasma, 250 mg QD, 250 mg QD 4/1 (n = 6), nominal time 8 h, read-out: Mean plasma concentration following the last dose on cycle 1 day 28",161 ng/mL
same,concentration at 10 h,"human, plasma, 250 mg QD, 250 mg QD 4/1 (n = 6), nominal time 10 h, read-out: Mean plasma concentration following the last dose on cycle 1 day 28",141 ng/mL
same,concentration at 0 h,"human, plasma, 250 mg, 250 mg QD 4/1 (n = 6), nominal time 0 h, read-out: Mean plasma concentration following the last dose on cycle 1 day 28",64.5 ng/mL
same,concentration at 1 h,"human, plasma, 250 mg, 250 mg QD 4/1 (n = 6), nominal time 1 h, read-out: Mean plasma concentration following the last dose on cycle 1 day 28",107 ng/mL
same,concentration at 2 h,"human, plasma, 250 mg, 250 mg QD 4/1 (n = 6), nominal time 2 h, read-out: Mean plasma concentration following the last dose on cycle 1 day 28",177 ng/mL
same,concentration at 20 h,"human, plasma, 250 mg, 250 mg QD 4/1 (n = 6), nominal time 20 h, read-out: Mean plasma concentration following the last dose on cycle 1 day 28",53.6 ng/mL
same,concentration at 24 h,"human, plasma, 250 mg, 250 mg QD 4/1 (n = 6), nominal time 24 h, read-out: Mean plasma concentration following the last dose on cycle 1 day 28",63 ng/mL
same,AUC(0-t),"human, plasma, 250 mg, 250 mg QD (4/1), C1D1 (n = 6), plasma, read-out: AUC(0-24), mean (% CV)",7580 ng·h/mL
same,concentration at 24 h,"human, plasma, 250 mg, 250 mg QD (4/1), C1D1 (n = 6), plasma, read-out: C(trough, 24 h), mean (% CV)",143 ng/mL
same,Cmax,"human, plasma, 250 mg, 250 mg QD (4/1), C1D1 (n = 6), plasma, read-out: Cmax, mean (% CV)",848 ng/mL
same,Tmax,"human, plasma, 250 mg, 250 mg QD (4/1), C1D1 (n = 6), plasma",3.7 h
same,half-life,"human, plasma, 250 mg, 250 mg QD (4/1), C1D1 (n = 6), plasma, read-out: t½, mean (% CV) (converted)",11.5 h
same,AUC(0-t),"human, plasma, 250 mg, 250 mg QD (4/1), C1D28 (n = 4), plasma, read-out: AUC(0-24), mean (% CV)",9810 ng·h/mL
same,concentration at 24 h,"human, plasma, 250 mg, 250 mg QD (4/1), C1D28 (n = 4), plasma, read-out: C(trough, 24 h), mean (% CV)",246 ng/mL
same,Cmax,"human, plasma, 250 mg, 250 mg QD (4/1), C1D28 (n = 4), plasma, read-out: Cmax, mean (% CV)",734 ng/mL
same,Tmax,"human, plasma, 250 mg, 250 mg QD (4/1), C1D28 (n = 4), plasma",4.5 h
same,half-life,"human, plasma, 250 mg, 250 mg QD (4/1), C1D28 (n = 4), plasma, read-out: t½, mean (% CV) (converted)",22.4 h
same,concentration at 24 h,"human, plasma, 250 mg, 250 mg QD (4/1), C2D28 (n = 4), plasma, read-out: C(trough, 24 h), mean (% CV)",279 ng/mL
same,Cmax,"human, plasma, 250 mg, 250 mg QD (4/1), C2D28 (n = 4), plasma, read-out: Cmax, mean (% CV)",748 ng/mL
same,Tmax,"human, plasma, 250 mg, 250 mg QD (4/1), C2D28 (n = 4), plasma",5.5 h
same,half-life,"human, plasma, 250 mg, 250 mg QD (4/1), C2D28 (n = 4), plasma, read-out: t½, mean (% CV) (converted)",13.2 h
same,half-life,"human, plasma, 4/1 schedule, blood samples for 144 hours after the last dose on Day 28, across the dose groups, read-out: longer t1/2, mean estimates",13.2 to 26.9 h
same,half-life,"human, plasma, C1D1, across dose groups, read-out: mean terminal plasma half-life (t1/2) over 24 hours after dosing",10.8 to 18.8 h
same,concentration at 12 h,"human, plasma, oral, 25 mg QD, 25 mg QD 4/1 (n = 6), read-out: Mean plasma concentration following the last dose on cycle 1 day 28",30.1 ng/mL
same,concentration at 4 h,"human, plasma, oral, 25 mg, 25 mg QD 4/1 (n = 6), read-out: Mean plasma concentration following the last dose on cycle 1 day 28",58.3 ng/mL
same,AUC(0-t),"human, plasma, oral, 25 mg, 25 mg QD (4/1), C2D28 (n = 5), plasma, read-out: AUC(0-24), mean (% CV)",794 ng·h/mL
same,concentration at 24 h,"human, plasma, oral, 25 mg, 25 mg QD (4/1), C2D28 (n = 5), plasma, read-out: C(trough, 24 h), mean (% CV)",21.4 ng/mL
same,AUC(0-t),"human, plasma, oral, 25 mg, one patient excluded from the mean, 25 mg QD 4/1, C2D28, read-out: AUC(0-24)",7000 ng·h/mL
same,Cmax,"human, plasma, oral, 25 mg, one patient excluded from the mean, 25 mg QD 4/1, C2D28, read-out: Cmax",394 ng/mL
same,concentration at 12 h,"human, plasma, oral, 50 mg QD, 50 mg QD 4/1 (n = 5), read-out: Mean plasma concentration following the last dose on cycle 1 day 28",50.4 ng/mL
same,concentration at 4 h,"human, plasma, oral, 50 mg, 50 mg QD 4/1 (n = 5), read-out: Mean plasma concentration following the last dose on cycle 1 day 28",81.1 ng/mL
same,concentration at 12 h,"human, plasma, oral, 100 mg QD, 100 mg QD 4/1 (n = 6), read-out: Mean plasma concentration following the last dose on cycle 1 day 28",204 ng/mL
same,concentration at 12 h,"human, plasma, oral, 100 mg, 100 mg QD Continuous (n = 4), read-out: Mean plasma concentration following the last dose on cycle 1 day 28",377 ng/mL
same,concentration at 12 h,"human, plasma, oral, 150 mg QD, 150 mg QD 4/1 (n = 5), read-out: Mean plasma concentration following the last dose on cycle 1 day 28",91.3 ng/mL
same,concentration at 4 h,"human, plasma, oral, 150 mg, 150 mg QD 4/1 (n = 5), read-out: Mean plasma concentration following the last dose on cycle 1 day 28",231 ng/mL
same,concentration at 12 h,"human, plasma, oral, 150 mg, 150 mg QD Continuous (n = 6), read-out: Mean plasma concentration following the last dose on cycle 1 day 28",465 ng/mL
same,concentration at 12 h,"human, plasma, oral, 200 mg, 200 mg QD 4/1 (n = 5), read-out: Mean plasma concentration following the last dose on cycle 1 day 28",355 ng/mL
same,concentration at 12 h,"human, plasma, oral, 250 mg, 250 mg QD 4/1 (n = 6), read-out: Mean plasma concentration following the last dose on cycle 1 day 28",130 ng/mL
same,AUC(0-t),"human, plasma, oral, 250 mg, 250 mg QD (4/1), C2D28 (n = 4), plasma, read-out: AUC(0-24), mean (% CV)",9770 ng·h/mL
same,half-life,"human, plasma, oral, patients with solid tumors, read-out: effective t1/2 of elimination from plasma",11 to 19 h
same,concentration at 1 week,"human, extrapolating beyond the measured plasma concentrations at 144 hours, rest period after the last dose of Cycle 1, read-out: concentration prior to the start of dosing in the following cycle",< 5 ng/mL
same,higher exposures on C2D28 compared with C1D28,"one patient excluded from the mean, 25 mg QD 4/1",approximately 5 fold
same,accumulation of the drug with continuous dosing,,no unexpected accumulation
same,accumulation of the drug with continuous dosing,listed as compound of formula 1,no unexpected drug accumulation
